According to PubChem BioAssay AID256 (DTP/NCI, 2004):
“And” between values parts separate entries of the source, which are not always exact repeats. Equal values may be shown once. Toxic doses and inconclusive results are not listed.

Tested on: CD2F1 mice, L1210 leukemia ip, survival T/C
Assay: NCI In Vivo Anticancer Drug Screen. Data for tumor model L1210 Leukemia (intraperitoneal) in CD2F1 (CDF1) mice
Details: higher = longer survival
Outline: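 Read-out first: treated-group measurement over vehicle-control measurement, expressed as a ratio. Animals bore a transplanted tumor line and were dosed with compound or vehicle.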

[1] = endpoint: mean survival time, dose: 100.0 mg/kg/injection, schedule: Q04DX003 (ip), vehicle: saline with Tween-80
[2] = endpoint: mean survival time, dose: 200.0 mg/kg/injection, schedule: Q04DX003 (ip), vehicle: saline with Tween-80
[3] = endpoint: mean survival time, dose: 400.0 mg/kg/injection, schedule: Q04DX003 (ip), vehicle: saline with Tween-80
[4] = endpoint: mean survival time, dose: 25.0 mg/kg/injection, schedule: Q01DX009 (ip), vehicle: saline
[5] = endpoint: mean survival time, dose: 50.0 mg/kg/injection, schedule: Q01DX009 (ip), vehicle: saline
[6] = endpoint: mean survival time, dose: 100.0 mg/kg/injection, schedule: Q01DX001 (ip), vehicle: saline with Tween-80
[7] = endpoint: mean survival time, dose: 200.0 mg/kg/injection, schedule: Q01DX001 (ip), vehicle: saline with Tween-80

## Cc1ccc2snc(C(=O)O)c2c1[N+](=O)[O-]
[1]
  T/C: 98 % of control
[2]
  T/C: 104 % of control
[3]
  T/C: 103 % of control

## CC1(C)C(=O)C(C)(C)C1=NNc1ccc([N+](=O)[O-])cc1[N+](=O)[O-]
endpoint: median survival time, dose: 50.0 mg/kg/injection, schedule: Q04DX002 (ip), vehicle: saline with Tween-80
  T/C: 90 % of control
endpoint: median survival time, dose: 100.0 mg/kg/injection, schedule: Q04DX002 (ip), vehicle: saline with Tween-80
  T/C: 100 % of control
endpoint: median survival time, dose: 200.0 mg/kg/injection, schedule: Q04DX002 (ip), vehicle: saline with Tween-80
  T/C: 90 % of control
endpoint: median survival time, dose: 400.0 mg/kg/injection, schedule: Q04DX002 (ip), vehicle: saline with Tween-80
  T/C: 100 % of control

## COc1nc(OC)c2ccn(C3CC(O)C(CO)O3)c2n1 (stereo unspecified)
endpoint: median survival time, dose: 12.5 mg/kg/injection, schedule: Q01DX005 (ip), vehicle: saline
  T/C: 106 % of control
endpoint: median survival time, dose: 25.0 mg/kg/injection, schedule: Q01DX005 (ip), vehicle: saline
  T/C: 103 % of control
endpoint: median survival time, dose: 50.0 mg/kg/injection, schedule: Q01DX005 (ip), vehicle: saline
  T/C: 102 % of control
endpoint: median survival time, dose: 100.0 mg/kg/injection, schedule: Q01DX005 (ip), vehicle: saline
  T/C: 93 % of control
endpoint: median survival time, dose: 200.0 mg/kg/injection, schedule: Q01DX005 (ip), vehicle: saline
  T/C: 98 % of control

## CCCC(C#CCN(C)C)N(C)C (stereo unspecified)
endpoint: mean survival time, dose: 12.5 mg/kg/injection, schedule: Q01DX009 (ip), vehicle: saline
  T/C: 97 % of control
[4]
  T/C: 97 % of control
[5]
  T/C: 98 % of control

## C/C(=N\N=C(N)N)c1ccc(NC(=O)Nc2ccc(/C(C)=N/N=C(N)N)cc2)cc1
endpoint: mean survival time, dose: 25.0 mg/kg/injection, schedule: Q01DX005 (ip), vehicle: saline
  T/C: 155 % of control
[4]
  T/C: 155 % of control
endpoint: mean survival time, dose: 25.0 mg/kg/injection, schedule: Q01DX009 (sc), vehicle: saline
  T/C: 101 % of control
endpoint: mean survival time, dose: 50.0 mg/kg/injection, schedule: Q01DX005 (ip), vehicle: saline
  T/C: 185 % of control
endpoint: mean survival time, dose: 50.0 mg/kg/injection, schedule: Q01DX007 (ip), vehicle: saline
  T/C: 152 % of control
[5]
  T/C: 154 % of control and 188 % of control
endpoint: mean survival time, dose: 50.0 mg/kg/injection, schedule: Q01DX009 (sc), vehicle: saline
  T/C: 107 % of control
endpoint: mean survival time, dose: 100.0 mg/kg/injection, schedule: Q01DX001 (sc), vehicle: saline
  T/C: 101 % of control
endpoint: mean survival time, dose: 100.0 mg/kg/injection, schedule: Q01DX005 (ip), vehicle: saline
  T/C: 223 % of control
endpoint: mean survival time, dose: 100.0 mg/kg/injection, schedule: Q01DX007 (ip), vehicle: saline
  T/C: 225 % of control
endpoint: mean survival time, dose: 100.0 mg/kg/injection, schedule: Q01DX009 (ip), vehicle: saline
  T/C: 250 % of control and 314 % of control
endpoint: mean survival time, dose: 100.0 mg/kg/injection, schedule: Q01DX009 (oral), vehicle: saline
  T/C: 98 % of control
endpoint: mean survival time, dose: 100.0 mg/kg/injection, schedule: Q01DX009 (sc), vehicle: saline
  T/C: 102 % of control
endpoint: mean survival time, dose: 100.0 mg/kg/injection, schedule: Q03DX003 (ip), vehicle: saline
  T/C: 154 % of control
endpoint: mean survival time, dose: 100.0 mg/kg/injection, schedule: Q04DX003 (ip), vehicle: saline
  T/C: 163 % of control
endpoint: mean survival time, dose: 100.0 mg/kg/injection, schedule: Q## X024 (ip), vehicle: saline
  T/C: 160 % of control
endpoint: mean survival time, dose: 200.0 mg/kg/injection, schedule: Q01DX001 (ip), vehicle: saline
  T/C: 155 % of control
endpoint: mean survival time, dose: 200.0 mg/kg/injection, schedule: Q01DX001 (oral), vehicle: saline
  T/C: 103 % of control
endpoint: mean survival time, dose: 200.0 mg/kg/injection, schedule: Q01DX001 (sc), vehicle: saline
  T/C: 102 % of control
endpoint: mean survival time, dose: 200.0 mg/kg/injection, schedule: Q01DX007 (ip), vehicle: saline
  T/C: 90 % of control
endpoint: mean survival time, dose: 200.0 mg/kg/injection, schedule: Q01DX009 (ip), vehicle: saline
  T/C: 217 % of control
endpoint: mean survival time, dose: 200.0 mg/kg/injection, schedule: Q01DX009 (oral), vehicle: saline
  T/C: 88 % of control
endpoint: mean survival time, dose: 200.0 mg/kg/injection, schedule: Q01DX009 (sc), vehicle: saline
  T/C: 119 % of control
endpoint: mean survival time, dose: 200.0 mg/kg/injection, schedule: Q03DX003 (ip), vehicle: saline
  T/C: 186 % of control
endpoint: mean survival time, dose: 200.0 mg/kg/injection, schedule: Q03HX008 (ip), vehicle: saline
  T/C: 152 % of control
endpoint: mean survival time, dose: 200.0 mg/kg/injection, schedule: Q04DX003 (ip), vehicle: saline
  T/C: 156 % of control and 200 % of control
endpoint: mean survival time, dose: 200.0 mg/kg/injection, schedule: Q08DX002 (ip), vehicle: saline
  T/C: 172 % of control
endpoint: mean survival time, dose: 200.0 mg/kg/injection, schedule: Q## X016 (ip), vehicle: saline
  T/C: 198 % of control
endpoint: mean survival time, dose: 200.0 mg/kg/injection, schedule: Q## X024 (ip), vehicle: saline
  T/C: 230 % of control
endpoint: mean survival time, dose: 400.0 mg/kg/injection, schedule: Q01DX001 (ip), vehicle: saline
  T/C: 180 % of control
endpoint: mean survival time, dose: 400.0 mg/kg/injection, schedule: Q01DX001 (oral), vehicle: saline
  T/C: 101 % of control
endpoint: mean survival time, dose: 400.0 mg/kg/injection, schedule: Q01DX001 (sc), vehicle: saline
  T/C: 105 % of control
endpoint: mean survival time, dose: 400.0 mg/kg/injection, schedule: Q01DX009 (oral), vehicle: saline
  T/C: 116 % of control
endpoint: mean survival time, dose: 400.0 mg/kg/injection, schedule: Q03HX008 (ip), vehicle: saline
  T/C: 179 % of control
endpoint: mean survival time, dose: 400.0 mg/kg/injection, schedule: Q04DX003 (ip), vehicle: saline
  T/C: 325 % of control
endpoint: mean survival time, dose: 400.0 mg/kg/injection, schedule: Q08DX002 (ip), vehicle: saline
  T/C: 225 % of control
endpoint: mean survival time, dose: 400.0 mg/kg/injection, schedule: Q## X016 (ip), vehicle: saline
  T/C: 284 % of control
endpoint: mean survival time, dose: 400.0 mg/kg/injection, schedule: Q## X024 (ip), vehicle: saline
  T/C: 374 % of control
endpoint: mean survival time, dose: 800.0 mg/kg/injection, schedule: Q01DX001 (ip), vehicle: saline
  T/C: 206 % of control
endpoint: mean survival time, dose: 800.0 mg/kg/injection, schedule: Q01DX001 (oral), vehicle: saline
  T/C: 102 % of control
endpoint: mean survival time, dose: 800.0 mg/kg/injection, schedule: Q01DX001 (sc), vehicle: saline
  T/C: 105 % of control
endpoint: mean survival time, dose: 800.0 mg/kg/injection, schedule: Q01DX009 (oral), vehicle: saline
  T/C: 98 % of control
endpoint: mean survival time, dose: 800.0 mg/kg/injection, schedule: Q04DX003 (ip), vehicle: saline
  T/C: 294 % of control
endpoint: mean survival time, dose: 800.0 mg/kg/injection, schedule: Q08DX002 (ip), vehicle: saline
  T/C: 217 % of control
endpoint: mean survival time, dose: 800.0 mg/kg/injection, schedule: Q## X016 (ip), vehicle: saline
  T/C: 235 % of control
endpoint: mean survival time, dose: 1600.0 mg/kg/injection, schedule: Q01DX001 (oral), vehicle: saline
  T/C: 102 % of control

## O=C1NC23C(=O)N(C4CCCCC4)CC2(Cc2ccccc2)c2ccccc2N3C1=O (stereo unspecified)
[6]
  T/C: 86 % of control
[7]
  T/C: 92 % of control
endpoint: mean survival time, dose: 400.0 mg/kg/injection, schedule: Q01DX001 (ip), vehicle: saline with Tween-80
  T/C: 86 % of control

## [CH3][Pb]([CH3])([CH3])[NH]C#N
endpoint: mean survival time, dose: 2.5 mg/kg/injection, schedule: Q01DX009 (ip), vehicle: saline
  T/C: 98 % of control
endpoint: mean survival time, dose: 5.0 mg/kg/injection, schedule: Q01DX009 (ip), vehicle: saline
  T/C: 87 % of control

## C=CC(=O)Nc1ccccc1
endpoint: mean survival time, dose: 50.0 mg/kg/injection, schedule: Q04DX002 (ip), vehicle: Klucel (hydroxypropylcellulose) (HPC)
  T/C: 94 % of control
endpoint: mean survival time, dose: 100.0 mg/kg/injection, schedule: Q04DX002 (ip), vehicle: Klucel (hydroxypropylcellulose) (HPC)
  T/C: 94 % of control
[1]
  T/C: 96 % of control
endpoint: mean survival time, dose: 200.0 mg/kg/injection, schedule: Q04DX002 (ip), vehicle: Klucel (hydroxypropylcellulose) (HPC)
  T/C: 97 % of control
[2]
  T/C: 96 % of control
[3]
  T/C: 97 % of control

## COCC(O)CN1CCN(c2cccc3c2CCCC3)CC1 (stereo unspecified)
[6]
  T/C: 97 % of control
[7]
  T/C: 100 % of control

## O=C(O)Cc1ccc(Cl)cc1
endpoint: mean survival time, dose: 75.0 mg/kg/injection, schedule: Q01DX009 (ip), vehicle: saline with Tween-80
  T/C: 96 % of control
endpoint: mean survival time, dose: 150.0 mg/kg/injection, schedule: Q01DX009 (ip), vehicle: saline with Tween-80
  T/C: 102 % of control
endpoint: mean survival time, dose: 300.0 mg/kg/injection, schedule: Q01DX009 (ip), vehicle: saline with Tween-80
  T/C: 88 % of control

## CC1=C2CCOC2=Nc2ccccc2O1
endpoint: mean survival time, dose: 75.0 mg/kg/injection, schedule: Q01DX001 (ip), vehicle: saline
  T/C: 109 % of control
endpoint: mean survival time, dose: 150.0 mg/kg/injection, schedule: Q01DX001 (ip), vehicle: saline
  T/C: 104 % of control
endpoint: mean survival time, dose: 300.0 mg/kg/injection, schedule: Q01DX001 (ip), vehicle: saline
  T/C: 97 % of control

## CCCCCCCCCCCCCCCC(CCCC)CCCCCC (stereo unspecified)
endpoint: mean survival time, dose: 100.0 mg/kg/injection, schedule: Q01DX001 (ip), vehicle: saline sonified
  T/C: 108 % of control
endpoint: mean survival time, dose: 200.0 mg/kg/injection, schedule: Q01DX001 (ip), vehicle: saline sonified
  T/C: 98 % of control
endpoint: mean survival time, dose: 400.0 mg/kg/injection, schedule: Q01DX001 (ip), vehicle: saline sonified
  T/C: 104 % of control

## O=C(C(Cl)Cl)N(O)c1ccccc1OCc1ccccc1
[1]
  T/C: 105 % of control
[2]
  T/C: 103 % of control
[3]
  T/C: 103 % of control
